Measured values as given in ChEMBL document CHEMBL1201862, “PubChem BioAssay data set” (2004).
Activity calls are given as the source filed them.

What was measured:
[1] = biological target: Eukaryotic translation initiation factor 4E (Mus musculus, UniProt P63073); assay: blockers of eIF4G binding by eIF4E – biochemical, TR-FRET, dose response (AID 855); type: functional;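 note: potency for disrupting eIF4E binding to eIF4GI seen as loss of FRET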
[2] = biological target: Cytochrome P450 3A4 (Homo sapiens, UniProt P08684); conditions: Potency;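 note: confirmatory qHTS run detecting inhibitors and substrates of CYP3A4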
Sequence of Cytochrome P450 3A4 (P08684 whole entry): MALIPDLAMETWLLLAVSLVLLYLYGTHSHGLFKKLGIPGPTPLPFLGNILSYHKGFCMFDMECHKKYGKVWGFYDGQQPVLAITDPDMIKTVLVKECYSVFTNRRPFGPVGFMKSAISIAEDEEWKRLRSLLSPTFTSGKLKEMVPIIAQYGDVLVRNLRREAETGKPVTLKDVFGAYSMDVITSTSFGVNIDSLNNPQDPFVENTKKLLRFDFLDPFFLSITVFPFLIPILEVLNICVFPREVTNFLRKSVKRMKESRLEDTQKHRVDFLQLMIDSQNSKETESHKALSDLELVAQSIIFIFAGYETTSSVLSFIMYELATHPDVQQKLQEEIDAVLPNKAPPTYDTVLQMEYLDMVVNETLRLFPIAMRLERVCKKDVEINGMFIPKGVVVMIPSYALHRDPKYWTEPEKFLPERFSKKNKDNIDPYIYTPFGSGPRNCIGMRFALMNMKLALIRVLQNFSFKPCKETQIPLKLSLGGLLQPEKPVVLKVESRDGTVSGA

[3] = biological target: Peroxisome proliferator-activated receptor gamma/Nuclear receptor coactivator 3 (Homo sapiens, UniProt P37231); type: functional;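 note: agonist potency for raising coactivator recruitment to the receptor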
[4] = tested on: H4; assay: Luminescence Cell-Based Dose Response HTS to Identify Activators of 5'UTR Stem-Loop Driven Prion Protein mRNA Translation in H4 Neuroglioblastoma Cells. [Related pubchem assays: 1829 (Project Summary), 1814 (Primary HTS)]; type: functional; conditions: Homo sapiens
[5] = biological target: Peroxisome proliferator-activated receptor gamma/Nuclear receptor coactivator 2 (Homo sapiens, UniProt P37231); type: functional;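 note: agonist potency for raising coactivator recruitment to the receptor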
Sequence of Peroxisome proliferator-activated receptor gamma/Nuclear receptor coactivator 2 (P37231 whole entry): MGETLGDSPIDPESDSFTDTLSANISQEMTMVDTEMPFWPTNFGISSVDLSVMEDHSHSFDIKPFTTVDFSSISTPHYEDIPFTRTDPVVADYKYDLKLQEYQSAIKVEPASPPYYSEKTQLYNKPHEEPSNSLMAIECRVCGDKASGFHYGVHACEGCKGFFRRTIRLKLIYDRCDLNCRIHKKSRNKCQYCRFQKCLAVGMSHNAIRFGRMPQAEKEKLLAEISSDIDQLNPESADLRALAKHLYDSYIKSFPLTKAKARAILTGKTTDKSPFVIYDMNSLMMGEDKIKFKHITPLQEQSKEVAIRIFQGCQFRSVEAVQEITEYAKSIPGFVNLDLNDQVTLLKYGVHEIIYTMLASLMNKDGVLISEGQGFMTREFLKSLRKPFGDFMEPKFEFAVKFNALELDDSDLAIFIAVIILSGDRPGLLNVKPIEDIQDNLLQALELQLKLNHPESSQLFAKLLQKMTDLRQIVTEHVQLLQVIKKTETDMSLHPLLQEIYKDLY
Sequence of Peroxisome proliferator-activated receptor gamma/Nuclear receptor coactivator 2 (Q15596 whole entry, further chain): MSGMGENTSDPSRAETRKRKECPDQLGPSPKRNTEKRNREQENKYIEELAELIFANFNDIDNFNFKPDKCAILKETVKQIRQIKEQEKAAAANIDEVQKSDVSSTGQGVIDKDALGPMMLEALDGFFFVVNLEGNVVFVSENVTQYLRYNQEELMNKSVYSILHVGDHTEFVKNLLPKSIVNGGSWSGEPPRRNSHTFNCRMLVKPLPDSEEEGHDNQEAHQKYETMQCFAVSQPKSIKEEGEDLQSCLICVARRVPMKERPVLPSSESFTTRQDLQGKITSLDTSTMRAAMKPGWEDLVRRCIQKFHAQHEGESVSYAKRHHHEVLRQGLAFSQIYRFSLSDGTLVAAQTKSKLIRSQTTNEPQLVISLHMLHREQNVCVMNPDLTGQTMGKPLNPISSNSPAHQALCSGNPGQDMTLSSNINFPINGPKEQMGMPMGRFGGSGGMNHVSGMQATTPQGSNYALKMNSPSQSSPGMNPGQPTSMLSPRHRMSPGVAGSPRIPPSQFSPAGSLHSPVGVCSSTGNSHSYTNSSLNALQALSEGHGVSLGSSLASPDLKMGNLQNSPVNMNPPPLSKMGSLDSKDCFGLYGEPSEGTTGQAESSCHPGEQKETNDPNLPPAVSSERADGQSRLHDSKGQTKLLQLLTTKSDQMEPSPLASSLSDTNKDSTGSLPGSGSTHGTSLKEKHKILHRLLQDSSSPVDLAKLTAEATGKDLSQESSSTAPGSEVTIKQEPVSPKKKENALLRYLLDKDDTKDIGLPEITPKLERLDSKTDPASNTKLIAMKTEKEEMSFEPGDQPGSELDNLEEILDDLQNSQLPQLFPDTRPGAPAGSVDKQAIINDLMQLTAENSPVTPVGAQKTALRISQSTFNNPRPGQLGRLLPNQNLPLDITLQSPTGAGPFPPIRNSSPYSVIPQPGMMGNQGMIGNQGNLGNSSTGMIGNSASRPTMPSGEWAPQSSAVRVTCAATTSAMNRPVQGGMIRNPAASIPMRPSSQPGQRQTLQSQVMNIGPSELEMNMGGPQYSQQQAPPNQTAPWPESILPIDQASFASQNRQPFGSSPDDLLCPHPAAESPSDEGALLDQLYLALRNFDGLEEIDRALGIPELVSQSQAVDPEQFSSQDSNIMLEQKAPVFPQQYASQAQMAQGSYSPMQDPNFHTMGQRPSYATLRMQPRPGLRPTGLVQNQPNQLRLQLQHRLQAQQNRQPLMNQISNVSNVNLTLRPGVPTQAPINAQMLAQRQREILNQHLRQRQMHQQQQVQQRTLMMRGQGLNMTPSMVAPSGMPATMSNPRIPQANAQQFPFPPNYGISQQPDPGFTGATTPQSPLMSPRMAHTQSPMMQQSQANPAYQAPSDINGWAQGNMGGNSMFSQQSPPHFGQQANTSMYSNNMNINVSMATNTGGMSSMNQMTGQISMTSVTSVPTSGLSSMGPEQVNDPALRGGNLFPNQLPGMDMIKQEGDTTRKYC

[6] = biological target: Cytochrome P450 2C19 (Homo sapiens, UniProt P33261); assay: Cytochrome panel assay with activity outcomes. Panel member name: p450-cyp2c19 Compounds with AC50 equal or less than 10 uM are considered active; type: functional; conditions: read-out: AC50
[7] = biological target: Peroxisome proliferator-activated receptor gamma/Nuclear receptor coactivator 1 (Homo sapiens, UniProt P37231); type: functional;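 note: agonist potency as compounds enhance coactivator SRC-1 recruitment to PPARgamma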
Sequence of Peroxisome proliferator-activated receptor gamma/Nuclear receptor coactivator 1 (P37231 whole entry): as the sequence (P37231 whole entry) above
Sequence of Peroxisome proliferator-activated receptor gamma/Nuclear receptor coactivator 1 (Q15788 whole entry, further chain): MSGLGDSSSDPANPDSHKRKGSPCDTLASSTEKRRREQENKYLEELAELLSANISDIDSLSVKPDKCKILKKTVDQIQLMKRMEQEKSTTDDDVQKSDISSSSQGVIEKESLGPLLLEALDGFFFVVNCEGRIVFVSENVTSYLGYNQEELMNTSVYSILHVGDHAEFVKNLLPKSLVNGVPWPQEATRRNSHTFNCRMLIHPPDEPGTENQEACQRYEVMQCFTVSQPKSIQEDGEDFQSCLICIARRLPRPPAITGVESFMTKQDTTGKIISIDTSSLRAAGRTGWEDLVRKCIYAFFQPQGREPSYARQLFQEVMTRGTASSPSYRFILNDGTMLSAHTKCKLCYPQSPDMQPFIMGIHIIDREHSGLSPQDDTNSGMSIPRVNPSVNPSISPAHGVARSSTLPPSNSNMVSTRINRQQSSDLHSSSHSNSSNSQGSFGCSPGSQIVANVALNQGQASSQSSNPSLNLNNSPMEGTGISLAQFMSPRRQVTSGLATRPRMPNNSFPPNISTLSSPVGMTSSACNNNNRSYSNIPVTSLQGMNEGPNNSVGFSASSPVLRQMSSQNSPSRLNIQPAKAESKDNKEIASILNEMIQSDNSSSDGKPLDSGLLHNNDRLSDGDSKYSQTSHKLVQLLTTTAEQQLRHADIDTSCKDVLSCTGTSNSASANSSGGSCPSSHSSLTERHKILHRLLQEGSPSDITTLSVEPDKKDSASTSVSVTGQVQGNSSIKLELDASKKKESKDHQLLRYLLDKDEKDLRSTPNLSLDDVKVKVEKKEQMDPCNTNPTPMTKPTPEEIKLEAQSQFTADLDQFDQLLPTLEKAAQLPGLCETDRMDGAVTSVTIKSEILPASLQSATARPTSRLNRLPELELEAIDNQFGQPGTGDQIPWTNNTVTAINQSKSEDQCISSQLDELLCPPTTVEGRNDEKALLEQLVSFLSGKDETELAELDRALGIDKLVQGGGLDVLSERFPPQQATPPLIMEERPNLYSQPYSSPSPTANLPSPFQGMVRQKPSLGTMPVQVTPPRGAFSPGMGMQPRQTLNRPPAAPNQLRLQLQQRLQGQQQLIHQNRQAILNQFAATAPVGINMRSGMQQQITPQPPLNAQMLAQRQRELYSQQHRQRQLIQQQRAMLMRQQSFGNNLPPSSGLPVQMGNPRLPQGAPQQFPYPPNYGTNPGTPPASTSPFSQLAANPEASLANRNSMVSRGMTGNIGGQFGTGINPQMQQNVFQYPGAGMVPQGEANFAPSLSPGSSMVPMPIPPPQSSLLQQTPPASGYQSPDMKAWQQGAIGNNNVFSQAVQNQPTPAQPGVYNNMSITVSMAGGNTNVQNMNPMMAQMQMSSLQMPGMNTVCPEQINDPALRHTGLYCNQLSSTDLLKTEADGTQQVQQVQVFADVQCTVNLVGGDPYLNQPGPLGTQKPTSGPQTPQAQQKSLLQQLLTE

[8] = biological target: Voltage-dependent T-type calcium channel subunit alpha-1H (Homo sapiens, UniProt O95180); type: functional;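 note: channel activity triggered by adding a high calcium stimulation buffer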
[9] = tested on: INS1; assay: INS-1E survival protection against cytokine death – cell-based, luminescence, retest, dose response (AID 449756); type: functional; conditions: Rattus norvegicus;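 note: cell death triggered by IL-1 beta plus TNF-alpha plus IFN-gamma mixture; protective hits raise ATP signal compared with cytokine alone wells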
[10] = tested on: BJ; assay: cells; type: functional, cell-based; conditions: Homo sapiens
[11] = tested on: BJ; assay: BJ-TERT fibroblast viability loss – cell-based, RAS-independent, luminescence, dose response (AID 1933); type: functional; conditions: Homo sapiens
[12] = HEK-293T viability loss after treatment – luminescence, T-cell screen hits, cytotoxicity control for TCR NF-kB inhibitor project, dose response (AID 489026); type: functional, cell-based;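 note: cells exposed to compound about 14 hours before the viability readout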
[13] = tested on: BJ; assay: BJ-TERT-LT-ST fibroblast viability loss – cell-based, RAS-independent, luminescence, dose response (AID 1935); type: functional; conditions: Homo sapiens;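 note: BJ fibroblasts immortalized with TERT plus LT and ST oncogenes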
[14] = DRD fibroblast viability loss – cell-based, non-viral oncogenic, luminescence, dose response (AID 1934); type: functional; conditions: Homo sapiens
[15] = A cytotoxicity screen of small molecule inhibitors of the PhoP region in Salmonella typhi identified in the primary screen. [Related pubchem assays: 1850, 1864, 1985 ]; type: functional
[16] = HEK-293T cell viability reduction – luminescence, B-cell screen hits, cytotoxicity control for BCR NF-kB inhibitor project, dose response (AID 489021); type: functional, cell-based;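 note: HEK-293T cells carrying an NF-kB luciferase reporter; cells exposed to compound for about 14 hours before viability readout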
[17] = Luminescence Cell-Based Dose Retest to Confirm Inhibitors of Cancer Stem Cells. [Related pubchem assays (depositor defined):AID2717, AID2721]; type: functional; conditions: Homo sapiens
[18] = biological target: Induced myeloid leukemia cell differentiation protein Mcl-1 (Homo sapiens, UniProt Q07820); type: functional
Sequence of Induced myeloid leukemia cell differentiation protein Mcl-1 (Q07820 whole entry): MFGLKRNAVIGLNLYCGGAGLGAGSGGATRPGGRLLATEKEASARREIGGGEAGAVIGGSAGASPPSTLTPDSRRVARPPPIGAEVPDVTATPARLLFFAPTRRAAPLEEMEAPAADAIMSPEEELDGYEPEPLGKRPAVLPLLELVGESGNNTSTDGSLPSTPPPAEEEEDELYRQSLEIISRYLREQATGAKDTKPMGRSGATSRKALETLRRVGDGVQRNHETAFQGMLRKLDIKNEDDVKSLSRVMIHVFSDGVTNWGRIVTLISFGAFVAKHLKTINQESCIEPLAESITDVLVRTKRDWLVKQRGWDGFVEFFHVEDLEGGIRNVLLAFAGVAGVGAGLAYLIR

[19] = biological target: T1, High affinity choline transporter 1 (Homo sapiens, UniProt Q9GZV3); assay: human choline transporter blockers, potency – cell-based, 5-point CRC, membrane potential dye, dose response (AID 504840); type: functional
T1 sequence (Q9GZV3 whole entry): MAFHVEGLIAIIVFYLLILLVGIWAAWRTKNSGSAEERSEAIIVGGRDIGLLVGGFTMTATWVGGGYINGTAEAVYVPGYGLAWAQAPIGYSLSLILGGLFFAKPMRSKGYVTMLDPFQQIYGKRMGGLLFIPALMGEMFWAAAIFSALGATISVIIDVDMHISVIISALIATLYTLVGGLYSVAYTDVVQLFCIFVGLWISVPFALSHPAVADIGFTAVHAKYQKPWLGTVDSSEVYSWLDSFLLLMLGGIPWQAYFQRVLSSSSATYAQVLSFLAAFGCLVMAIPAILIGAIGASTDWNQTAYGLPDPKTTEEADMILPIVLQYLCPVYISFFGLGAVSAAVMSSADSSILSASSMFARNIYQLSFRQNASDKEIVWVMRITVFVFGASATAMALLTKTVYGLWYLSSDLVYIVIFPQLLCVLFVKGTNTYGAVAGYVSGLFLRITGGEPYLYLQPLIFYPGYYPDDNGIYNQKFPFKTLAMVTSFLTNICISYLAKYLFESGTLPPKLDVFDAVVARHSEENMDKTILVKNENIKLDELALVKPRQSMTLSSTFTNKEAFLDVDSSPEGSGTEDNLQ

[20] = biological target: T2, Aminopeptidase N (Plasmodium falciparum FcB1/Columbia, UniProt O96935); assay: malaria alanyl aminopeptidase activity blockers – biochemical, fluorogenic H-Leu-NHMec substrate, 1536-well (AID 1445); set-up: species or system Plasmodium falciparum 3D7, 3D7
T2 sequence (O96935 whole entry): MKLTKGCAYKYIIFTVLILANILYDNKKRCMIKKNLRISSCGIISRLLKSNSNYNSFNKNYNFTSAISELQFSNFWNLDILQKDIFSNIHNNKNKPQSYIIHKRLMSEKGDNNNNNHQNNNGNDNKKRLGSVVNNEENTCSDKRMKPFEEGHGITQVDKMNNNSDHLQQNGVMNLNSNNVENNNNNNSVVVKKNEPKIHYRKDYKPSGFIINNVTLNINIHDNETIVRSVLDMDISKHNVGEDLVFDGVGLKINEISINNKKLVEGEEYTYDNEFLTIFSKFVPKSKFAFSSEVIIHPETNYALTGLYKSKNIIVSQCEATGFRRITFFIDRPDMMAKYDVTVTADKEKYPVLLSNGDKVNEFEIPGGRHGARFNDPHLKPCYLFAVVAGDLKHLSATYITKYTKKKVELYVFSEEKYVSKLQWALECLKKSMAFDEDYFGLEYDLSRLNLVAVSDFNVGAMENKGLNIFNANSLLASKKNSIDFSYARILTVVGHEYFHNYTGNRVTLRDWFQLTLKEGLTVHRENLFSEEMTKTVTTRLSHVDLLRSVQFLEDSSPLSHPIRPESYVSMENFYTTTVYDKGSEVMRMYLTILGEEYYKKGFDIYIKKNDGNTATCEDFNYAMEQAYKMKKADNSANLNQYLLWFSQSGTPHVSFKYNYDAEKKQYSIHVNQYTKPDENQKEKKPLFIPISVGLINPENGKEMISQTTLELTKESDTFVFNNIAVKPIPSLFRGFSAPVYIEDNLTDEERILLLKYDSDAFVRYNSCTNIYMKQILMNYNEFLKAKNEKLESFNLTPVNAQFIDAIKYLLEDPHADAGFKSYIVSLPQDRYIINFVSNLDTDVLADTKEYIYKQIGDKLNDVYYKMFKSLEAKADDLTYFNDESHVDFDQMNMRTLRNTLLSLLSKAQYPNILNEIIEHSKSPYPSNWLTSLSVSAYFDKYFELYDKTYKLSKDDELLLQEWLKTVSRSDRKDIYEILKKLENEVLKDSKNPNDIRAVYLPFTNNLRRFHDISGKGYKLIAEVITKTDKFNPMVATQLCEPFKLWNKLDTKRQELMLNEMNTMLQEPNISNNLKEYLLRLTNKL

[21] = biological target: Genome polyprotein (dengue virus type 2, UniProt P29990); assay: flavivirus cap methylation enzyme inhibition – biochemical, confirmation dose response, primary screen (AID 588689); type: functional
[22] = biological target: T3, Leucine aminopeptidase (Plasmodium falciparum 3D7, UniProt Q8IL11); assay: P. falciparum M17LAP inhibitors, primary screen, biochemical, fluorogenic H-Leu-NHMec substrate, 1536-well (AID 1619); type: functional
T3 sequence (Q8IL11 whole entry): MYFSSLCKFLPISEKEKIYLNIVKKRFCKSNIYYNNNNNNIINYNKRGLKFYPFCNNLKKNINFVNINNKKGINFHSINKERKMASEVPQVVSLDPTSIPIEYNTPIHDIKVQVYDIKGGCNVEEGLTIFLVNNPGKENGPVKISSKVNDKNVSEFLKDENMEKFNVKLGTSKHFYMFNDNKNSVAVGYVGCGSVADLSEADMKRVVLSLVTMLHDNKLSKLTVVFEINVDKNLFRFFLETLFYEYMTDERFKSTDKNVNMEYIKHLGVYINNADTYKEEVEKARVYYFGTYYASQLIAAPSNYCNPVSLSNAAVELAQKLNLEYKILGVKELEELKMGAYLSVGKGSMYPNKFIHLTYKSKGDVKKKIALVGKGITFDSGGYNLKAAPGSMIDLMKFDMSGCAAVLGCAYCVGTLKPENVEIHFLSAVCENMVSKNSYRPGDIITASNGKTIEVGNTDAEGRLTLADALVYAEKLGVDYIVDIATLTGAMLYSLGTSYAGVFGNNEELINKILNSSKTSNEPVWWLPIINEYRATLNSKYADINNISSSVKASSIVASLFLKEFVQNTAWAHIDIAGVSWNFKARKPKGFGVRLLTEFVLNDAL

Sequence of Eukaryotic translation initiation factor 4E (P63073 whole entry): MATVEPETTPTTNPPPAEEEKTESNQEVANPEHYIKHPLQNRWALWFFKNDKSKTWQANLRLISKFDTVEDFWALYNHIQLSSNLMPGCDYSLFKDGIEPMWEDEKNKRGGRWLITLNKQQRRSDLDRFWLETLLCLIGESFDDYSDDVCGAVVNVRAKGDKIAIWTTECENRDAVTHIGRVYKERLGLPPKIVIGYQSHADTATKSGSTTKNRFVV

## C=CCn1c(S)nnc1-c1ccc2[nH]c(C)c(C)c2c1
[1]
  IC50: > 64 µM (inactive)

## Oc1ccc(C2Oc3cc(O)cc(O)c3CC2O)cc1 (stereo not given)
[2]
  AC50: 12.6 µM (inconclusive)

## Cc1ccc(N/N=C2/C(=N)N(c3ccccc3)NC2=O)cc1
[3]
  EC50: > 79.4 µM (not active)
[4]
  EC50: 10.6 µM (active)
[5]
  EC50: > 79.4 µM (not active)
[6]
  AC50: 5.01 µM (inconclusive)
[7]
  EC50: > 79.4 µM (not active)

## COc1c(OC)c(O)c2c(=O)cc(-c3c(O)cccc3O)oc2c1OC
[3]
  EC50: > 79.4 µM (not active)
[5]
  EC50: > 79.4 µM (not active)
[7]
  EC50: > 79.4 µM (not active)

## CCN(Cc1ccccc1)C(c1ccc(C(F)(F)F)cc1)c1nnnn1C(C)(C)C (stereo not given)
[8]
  EC50: 11.8 µM (active)
[9]
  AC50: 6.45 µM (active)

## COc1ccccc1N1CCN(C(=O)C2c3ccccc3Oc3ccccc32)CC1
[10]
  EC50: 40.2 µM (inconclusive)
[11]
  EC50: 2.13 µM (active)
[12]
  IC50: > 80 µM (inactive)
[8]
  EC50: 3.44 µM (active)
[13]
  EC50: 1.65 µM (inconclusive)
[14]
  EC50: 2.06 µM (inconclusive)

## Cn1cnnc1SCC(=O)Nc1ccc2nc(SCc3ccccc3)sc2c1
[15]
  EC50: > 50 µM (active)

## CCC(CC)c1nnc(NC(=O)C2COc3ccccc3O2)s1 (stereo not given)
[8]
  EC50: 3.85 µM (active)

## CCN1CCN(C(=O)Nc2ccc(Cc3ccc(NC(=O)N4CCN(CC)CC4)cc3)cc2)CC1
[15]
  EC50: > 50 µM (active)

## COc1ccc2ccccc2c1C1CC(=O)N2CN(C)CSC2=C1C#N (stereo not given)
[1]
  IC50: > 64 µM (inactive)

## COc1ccc(S(=O)(=O)N[C@H](C(=O)N2CC[C@@]3(O)CCCC[C@H]3C2)c2ccccc2)cc1
[15]
  EC50: > 50 µM (active)

## O=C(N/N=C/c1ccc(Cl)cc1Cl)c1ccc(-n2cnnn2)cc1
[16]
  IC50: > 80 µM (inactive)

## COc1cccc(Cn2nnc(C(=O)Nc3cc(Cl)ccc3OC)c2N)c1
[17]
  AC50: 498 nM (active)
[16]
  IC50: > 80 µM (inactive)

## COC(=O)CC1[C@@]2(C)C[C@@]34OC5(C)OC6(CC[C@@]7(C)C(c8ccoc8)OC(=O)C(C(C)=O)C7[C@]6(O5)C(O)[C@@]3(O)C2O)[C@]14C (stereo not given in full)
[2]
  AC50: 39.8 µM (inconclusive)

## Cc1ccc(C(=O)CSc2nnc(COc3cccc(C)c3)o2)cc1
[16]
  IC50: > 80 µM (inactive)

## Cc1ccc(NC(S)=NNc2ccc([N+](=O)[O-])cc2S(=O)(=O)Nc2ccccc2C(=O)O)cc1C
[18]
  IC50: 2.99 µM (active)
[19]
  IC50: 12.3 µM (active)
[20]
  IC50: 29.5 µM (active)
[21]
  IC50: > 100 µM (active)
[22]
  IC50: 5.16 µM (active)

## Cc1ccc(S(=O)(=O)Nc2c(C)n(C)n(-c3ccccc3)c2=O)cc1C(=O)NCc1ccccn1
[1]
  IC50: > 64 µM (inactive)

## CCCCCCN(C(=O)CCCCCN1C(=O)NC(c2ccc(-c3ccccc3)cc2)C(C(=O)OCc2ccccc2)=C1C)C(C(=O)NCCCC)c1ccccn1 (stereo not given)
[2]
  AC50: 1 µM (inconclusive)

## Cn1c(N)c(C(=O)COC(=O)c2cc(-c3ccccc3)nc3ccccc23)c(=O)n(Cc2ccccc2)c1=O
[2]
  AC50: 12.6 µM (inconclusive)

## CC1=CC2=NC(=O)/C(=C\c3cc(C)n(-c4ccccc4)c3C)C(=N)N2O1
[1]
  IC50: > 64 µM (inactive)

## Cc1cc(OCC(=O)Nc2ccc3oc(-c4ccncc4)nc3c2)ccc1Cl
[3]
  EC50: 50.6 µM (not active)
[5]
  EC50: 25.3 µM (not active)
[7]
  EC50: 24.8 µM (not active)
